Values joined by “and” are separate entries in the source; they are usually repeats but may differ in a detail not shown here. Equal entries are not always repeated. Inconclusive results and toxic doses are left out. Rule for the calls: active = survival T/C of 150% or more; inactive = T/C below 125% in these data.
System: CD2F1 mice, L1210 leukemia ip, survival T/C
Assay: NCI In Vivo Anticancer Drug Screen. Data for tumor model L1210 Leukemia (intraperitoneal) in CD2F1 (CDF1) mice
Details: endpoint: mean survival time, higher = longer survival
Outline: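 Each value reflects a quotient of treated over vehicle control outcomes in mice with a transplanted tumor.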

[1] = dose: 12.5 mg/kg/injection, schedule: Q01DX009 (ip), vehicle: saline with Tween-80
[2] = dose: 25.0 mg/kg/injection, schedule: Q01DX009 (ip), vehicle: saline with Tween-80
[3] = dose: 50.0 mg/kg/injection, schedule: Q01DX009 (ip), vehicle: saline with Tween-80
[4] = dose: 100.0 mg/kg/injection, schedule: Q01DX009 (ip), vehicle: saline with Tween-80
[5] = dose: 200.0 mg/kg/injection, schedule: Q01DX009 (ip), vehicle: saline with Tween-80
[6] = dose: 100.0 mg/kg/injection, schedule: Q01DX001 (ip), vehicle: saline
[7] = dose: 200.0 mg/kg/injection, schedule: Q01DX001 (ip), vehicle: saline
[8] = dose: 100.0 mg/kg/injection, schedule: Q04DX003 (ip), vehicle: saline with Tween-80
[9] = dose: 200.0 mg/kg/injection, schedule: Q04DX003 (ip), vehicle: saline with Tween-80
[10] = dose: 400.0 mg/kg/injection, schedule: Q04DX003 (ip), vehicle: saline with Tween-80
[11] = dose: 400.0 mg/kg/injection, schedule: Q01DX009 (ip), vehicle: saline with Tween-80

Measured: T/C

CC(C)OC(=O)COc1ccc(F)cc1F
inactive: dose: 100.0 mg/kg/injection, schedule: Q04DX002 (ip), vehicle: saline with Tween-80 92 % of control | dose: 200.0 mg/kg/injection, schedule: Q04DX002 (ip), vehicle: saline with Tween-80 95 % of control | dose: 400.0 mg/kg/injection, schedule: Q04DX002 (ip), vehicle: saline with Tween-80 89 % of control

CC1(C)CC1(Br)Br
inactive: dose: 6.25 mg/kg/injection, schedule: Q01DX009 (ip), vehicle: saline with Tween-80 94 % of control and 112 % of control | [1] 94 % of control and 106 % of control | [2] 102 % of control and 112 % of control | [3] 100 % of control and 110 % of control | [4] 93 % of control and 106 % of control | [5] 97 % of control and 100 % of control

CC1=C(/C=C/C(C)=N/NC(N)=S)C(C)(C)CCC1
inactive: [1] 106 % of control | [2] 115 % of control | dose: 25.0 mg/kg/injection, schedule: Q04DX003 (ip), vehicle: saline with Tween-80 98 % of control | dose: 50.0 mg/kg/injection, schedule: Q04DX003 (ip), vehicle: saline with Tween-80 104 % of control

OCCc1ccncc1
inactive: [6] 103 % of control | [7] 105 % of control

CN(C)N=Nc1c(F)cc(F)cc1F
inactive: [2] 98 % of control | [3] 102 % of control | [5] 90 % of control

CSc1cc(NC(C)=O)nc2nc[nH]c12
inactive: dose: 100.0 mg/kg/injection, schedule: Q01DX001 (ip), vehicle: Klucel (hydroxypropylcellulose) (HPC) 98 % of control | dose: 200.0 mg/kg/injection, schedule: Q01DX001 (ip), vehicle: Klucel (hydroxypropylcellulose) (HPC) 97 % of control

N/C(=N\Cl)C(Cl)(Cl)Cl
inactive: dose: 12.5 mg/kg/injection, schedule: Q01DX009 (ip), vehicle: saline 105 % of control | dose: 25.0 mg/kg/injection, schedule: Q01DX009 (ip), vehicle: saline 103 % of control | dose: 50.0 mg/kg/injection, schedule: Q01DX009 (ip), vehicle: saline 109 % of control

Nc1ncc[nH]1
inactive: dose: 50.0 mg/kg/injection, schedule: Q01DX001 (ip), vehicle: saline 110 % of control | [6] 108 % of control | [7] 110 % of control | dose: 400.0 mg/kg/injection, schedule: Q01DX001 (ip), vehicle: saline 108 % of control

[O-][n+]1ccnc2ccccc21
inactive: dose: 100.0 mg/kg/injection, schedule: Q04DX002 (ip), vehicle: saline 105 % of control | dose: 200.0 mg/kg/injection, schedule: Q04DX002 (ip), vehicle: saline 116 % of control | dose: 400.0 mg/kg/injection, schedule: Q04DX002 (ip), vehicle: saline 108 % of control

CCOC(=O)c1ccc(NC(=O)C(Br)C(Br)C(=O)O)cc1 (stereo not given)
inactive: dose: 100.0 mg/kg/injection, schedule: Q01DX001 (ip), vehicle: saline with Tween-80 110 % of control | dose: 200.0 mg/kg/injection, schedule: Q01DX001 (ip), vehicle: saline with Tween-80 110 % of control | dose: 400.0 mg/kg/injection, schedule: Q01DX001 (ip), vehicle: saline with Tween-80 108 % of control

CCOC(=O)/C=C/C1=CCCCC1
inactive: [3] 101 % of control | [4] 96 % of control | [5] 108 % of control

CCOC(=O)c1c(F)c(F)c(Oc2c(F)c(F)c(F)c(F)c2F)c(F)c1F
inactive: [8] 86 % of control | [9] 96 % of control | [10] 92 % of control

NC(=S)N/N=C/c1ccc(-c2ccccc2)cc1
inactive: [8] 97 % of control

O=C(NC1CCc2ccccc21)c1ccccc1 (stereo not given)
inactive: [8] 96 % of control | [9] 94 % of control | [11] 87 % of control | [10] 97 % of control

CCN(CC)S(=O)(=O)c1ccc(-c2cc(Cl)c3cc(S(=O)(=O)F)ccc3n2)cc1
inactive: [4] 107 % of control | [5] 87 % of control | [11] 91 % of control

COc1ccc(S(=O)(=O)F)cc1NC(=O)c1ccc2ccccc2c1O
inactive: dose: 100.0 mg/kg/injection, schedule: Q01DX009 (ip), vehicle: saline 112 % of control | dose: 200.0 mg/kg/injection, schedule: Q01DX009 (ip), vehicle: saline 108 % of control | dose: 400.0 mg/kg/injection, schedule: Q01DX009 (ip), vehicle: saline 113 % of control

Source: PubChem BioAssay AID256 (DTP/NCI, 2004)
